In patent US8383619B2, “Pharmaceutical compounds” (Astex Therapeutics Limited, priority 2008, dated 2013):

Tests used:
Type in all cases: cell-based
CGL-1 = test: Anti-proliferative assay (Oncodesign); settings: CGL-1 (BRAIN); read-out: IC50 (Concentration of test compound)
Method: (§1) The anti-proliferative activities of the parent compounds of the pro-drugs of the invention may be determined by measuring the ability of the compounds to inhibition of cell growth in a number of cell lines such as the human colon cancer cell line HCT116. Inhibition of cell growth is measured using the Alamar Blue assay (Nociari, M. M, Shalev, A., Benias, P., Russo, C. Journal of Immunological Methods 1998, 213, 157-167). The method is based on the ability of viable cells to reduce resazurin to its fluorescent product resorufin. For each proliferation assay cells are plated onto 96 well plates and allowed to recover for 16 hours prior to the addition of inhibitor compounds for a further 72 hours. At the end of the incubation period 10% (v/v) Alamar Blue is added and incubated for a further 6 hours prior to determination of fluorescent product at […]. In the case of the non-proliferating cell assay cells are maintained at confluence for 96 hour prior to the addition of inhibitor compounds for a further 72 hours. The number of viable cells is determined by Alamar Blue assay as before. Cell lines may be obtained from the ECACC (European Collection of cell Cultures).
(§2) The parent compound of the pro-drugs of Examples 1 to 25 i.e. (2,4-dihydroxy-5-isopropyl-phenyl)-[5-(4-methyl-piperazin-1-ylmethyl)-1,3-dihydro-isoindol-2-yl]-methanone, in the form of its L-lactate salt, was tested in anti-proliferative assays against one hundred cell lines by Oncodesign (Dijon, France). The IC50 values against each cell line are set out in the table below and the figures in the table refer to nanomolar concentrations. The compounds were tested up to a concentration of 10,000 nanomolar.

SK-MEL-5 = test: Anti-proliferative assay (Oncodesign); settings: Homo sapiens; SK-MEL-5 (SKIN); read-out: IC50 (Concentration of test compound)
Method: as §1, §2

PANC-1 = test: Anti-proliferative assay (Oncodesign); settings: Homo sapiens; PANC-1 (PANCREAS); read-out: IC50 (Concentration of test compound)
Method: as §1, §2

A-375-SM = test: Anti-proliferative assay (Oncodesign); settings: Homo sapiens, A375-SM; A-375-SM (SKIN); read-out: IC50 (Concentration of test compound)
Method: as §1, §2

AGS = test: Anti-proliferative assay (Oncodesign); settings: Homo sapiens; AGS (STOMACH); read-out: IC50 (Concentration of test compound)
Method: as §1, §2

PA-1 = test: Anti-proliferative assay (Oncodesign); settings: Homo sapiens; PA-1 (OVARY); read-out: IC50 (Concentration of test compound)
Method: as §1, §2

OCI-AML2 = test: Anti-proliferative assay (Oncodesign); settings: Homo sapiens; OCI-AML2 (BLOOD); read-out: IC50 (Concentration of test compound)
Method: as §1, §2

RPMI 8226 = test: Anti-proliferative assay (Oncodesign); settings: Homo sapiens; RPMI 8226 (BLOOD); read-out: IC50 (Concentration of test compound)
Method: as §1, §2

ZR-75-1 = test: Anti-proliferative assay (Oncodesign); settings: Homo sapiens; ZR-75-1 (BREAST); read-out: IC50 (Concentration of test compound)
Method: as §1, §2

CGL-9 = test: Anti-proliferative assay (Oncodesign); settings: CGL-9 (BRAIN); read-out: IC50 (Concentration of test compound)
Method: as §1, §2

Caki-1 = test: Anti-proliferative assay (Oncodesign); settings: Homo sapiens; Caki-1 (KIDNEY); read-out: IC50 (Concentration of test compound)
Method: as §1, §2

LB771-HNSCC = test: Anti-proliferative assay (Oncodesign); settings: LB771-HNSCC (HEAD AND NECK); read-out: IC50 (Concentration of test compound)
Method: as §1, §2

NCI-H82 = test: Anti-proliferative assay (Oncodesign); settings: Homo sapiens; NCI-H82 (LUNG); read-out: IC50 (Concentration of test compound)
Method: as §1, §2

CGL-3 = test: Anti-proliferative assay (Oncodesign); settings: CGL-3 (BRAIN); read-out: IC50 (Concentration of test compound)
Method: as §1, §2

HL-60/R10 = test: Anti-proliferative assay (Oncodesign); settings: Homo sapiens; HL-60/R10 (BLOOD); read-out: IC50 (Concentration of test compound)
Method: as §1, §2

Calu-3 = test: Anti-proliferative assay (Oncodesign); settings: Homo sapiens; Calu-3 (LUNG); read-out: IC50 (Concentration of test compound)
Method: as §1, §2

K-562 = test: Anti-proliferative assay (Oncodesign); settings: Homo sapiens, K562; K-562 (BLOOD); read-out: IC50 (Concentration of test compound)
Method: as §1, §2

LB831-BLC = test: Anti-proliferative assay (Oncodesign); settings: LB831-BLC (URINARY BLADDER); read-out: IC50 (Concentration of test compound)
Method: as §1, §2

KG-1 = test: Anti-proliferative assay (Oncodesign); settings: Homo sapiens; KG-1 (BLOOD); read-out: IC50 (Concentration of test compound)
Method: as §1, §2

IGROV-1/CDDP = test: Anti-proliferative assay (Oncodesign); settings: Homo sapiens; IGROV-1/CDDP (OVARY); read-out: IC50 (Concentration of test compound)
Method: as §1, §2

DU 145 = test: Anti-proliferative assay (Oncodesign); settings: Homo sapiens; DU 145 (PROSTATE); read-out: IC50 (Concentration of test compound)
Method: as §1, §2

A-498 = test: Anti-proliferative assay (Oncodesign); settings: Homo sapiens, A498; A-498 (KIDNEY); read-out: IC50 (Concentration of test compound)
Method: as §1, §2

LNCaP-FGC = test: Anti-proliferative assay (Oncodesign); settings: LNCaP-FGC (PROSTATE); read-out: IC50 (Concentration of test compound)
Method: as §1, §2

LB1319-MEL = test: Anti-proliferative assay (Oncodesign); settings: LB1319-MEL (SKIN); read-out: IC50 (Concentration of test compound)
Method: as §1, §2

Hs 294T = test: Anti-proliferative assay (Oncodesign); settings: Homo sapiens; Hs 294T (SKIN); read-out: IC50 (Concentration of test compound)
Method: as §1, §2

one hundred cell lines = test: Anti-proliferative assays against one hundred cell lines; settings: wide range of different cell lines
Method: as §1, with “Cultures). […]” for “Cultures).”

CC(C)c1cc(C(=O)N2Cc3ccc(CN4CCN(C)CC4)cc3C2)c(O)cc1O [(2,4-dihydroxy-5-isopropyl-phenyl)-[5-(4-methyl-piperazin-1-ylmethyl)-1,3-dihydro-isoindol-2-yl]-methanone]
IC50 (CGL-1): > 10000 nM
IC50 (SK-MEL-5): 185 nM
IC50 (PANC-1): 327 nM
IC50 (A-375-SM): 340 nM
IC50 (AGS): 66 nM
IC50 (PA-1): > 10000 nM
IC50 (OCI-AML2): > 10000 nM
IC50 (RPMI 8226): 10 nM
IC50 (ZR-75-1): 131 nM
IC50 (CGL-9): 161 nM
IC50 (Caki-1): > 10000 nM
IC50 (LB771-HNSCC): 391 nM
IC50 (NCI-H82): > 10000 nM
IC50 (CGL-3): 75 nM
IC50 (HL-60/R10): 847 nM
IC50 (Calu-3): > 10000 nM
IC50 (K-562): 147 nM
IC50 (LB831-BLC): 149 nM
IC50 (KG-1): > 10000 nM
IC50 (IGROV-1/CDDP): 147 nM
IC50 (DU 145): 85 nM
IC50 (A-498): 267 nM
IC50 (LNCaP-FGC): 78 nM
IC50 (LB1319-MEL): 35 nM
IC50 (Hs 294T): 219 nM
anti-proliferative activity (one hundred cell lines): potent anti-proliferative activity
